From ChEMBL document CHEMBL4007467, “Effects of 6-paradol, an unsaturated ketone from gingers, on cytochrome P450-mediated drug metabolism” (Bioorg Med Chem Lett, 2017)

Legend:
Type in all cases: ADME
[1] = target: T1, CYP2A6 (Homo sapiens, UniProt P11509); test: Inhibition of CYP2A6 in human liver microsomes assessed as enzyme-mediated metabolite formation at 0.1 uM using coumarin as substrate incubated for 5 mins followed by NADPH addition measured after 30 mins by LC-MS/MS analysis relative to control; set-up: scale not given: the % may be the effect or the level left; settings: probe coumarin, read-out: Activity
T1 sequence (P11509 whole entry): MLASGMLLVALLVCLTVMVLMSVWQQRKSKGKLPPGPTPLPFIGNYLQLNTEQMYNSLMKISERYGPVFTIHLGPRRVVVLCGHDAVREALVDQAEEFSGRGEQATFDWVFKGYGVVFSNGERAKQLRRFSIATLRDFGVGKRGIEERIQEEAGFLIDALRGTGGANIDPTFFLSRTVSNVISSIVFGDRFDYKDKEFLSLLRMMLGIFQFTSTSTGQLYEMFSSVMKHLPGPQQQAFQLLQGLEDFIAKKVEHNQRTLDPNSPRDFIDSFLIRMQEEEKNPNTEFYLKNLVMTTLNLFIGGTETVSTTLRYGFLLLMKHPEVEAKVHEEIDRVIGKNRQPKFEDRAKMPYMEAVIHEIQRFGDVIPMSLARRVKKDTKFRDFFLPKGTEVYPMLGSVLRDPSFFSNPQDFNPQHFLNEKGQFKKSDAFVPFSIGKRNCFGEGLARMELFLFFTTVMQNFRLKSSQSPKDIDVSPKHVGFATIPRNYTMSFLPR

[2] = target: CYP2D6 (Homo sapiens, UniProt P10635); test: Inhibition of CYP2D6 in human liver microsomes assessed as enzyme-mediated metabolite formation at 30 uM using dextromethorphan as substrate preincubated for 20 mins followed by substrate addition measured after 30 mins in presence of NADPH by LC-MS/MS analysis relative to control; set-up: scale not given: the % may be the effect or the level left; settings: probe dextromethorphan, read-out: Activity
CYP2D6, sequence (P10635 whole entry): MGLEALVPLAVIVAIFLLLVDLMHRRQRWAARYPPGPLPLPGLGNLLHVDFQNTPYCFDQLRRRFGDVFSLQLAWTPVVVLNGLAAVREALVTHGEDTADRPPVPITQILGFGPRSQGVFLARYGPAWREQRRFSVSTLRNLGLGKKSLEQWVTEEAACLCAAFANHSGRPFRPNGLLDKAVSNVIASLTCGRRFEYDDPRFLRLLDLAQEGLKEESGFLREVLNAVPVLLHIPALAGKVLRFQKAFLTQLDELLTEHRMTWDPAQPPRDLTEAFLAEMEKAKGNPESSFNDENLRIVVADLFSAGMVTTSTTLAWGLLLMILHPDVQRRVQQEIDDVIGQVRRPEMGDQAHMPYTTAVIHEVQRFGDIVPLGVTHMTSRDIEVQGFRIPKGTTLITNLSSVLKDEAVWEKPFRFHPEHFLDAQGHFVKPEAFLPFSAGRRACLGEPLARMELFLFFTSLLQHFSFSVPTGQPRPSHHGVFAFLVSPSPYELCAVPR

[3] = target: T2, CYP3A4 (Homo sapiens, UniProt P08684); test: Inhibition of CYP3A4 in human liver microsomes assessed as enzyme-mediated metabolite formation at 0.1 uM using midazolam as substrate preincubated for 20 mins followed by substrate addition measured after 30 mins in presence of NADPH by LC-MS/MS analysis relative to control; set-up: scale not given: the % may be the effect or the level left; settings: probe midazolam, read-out: Activity
T2 sequence (P08684 whole entry): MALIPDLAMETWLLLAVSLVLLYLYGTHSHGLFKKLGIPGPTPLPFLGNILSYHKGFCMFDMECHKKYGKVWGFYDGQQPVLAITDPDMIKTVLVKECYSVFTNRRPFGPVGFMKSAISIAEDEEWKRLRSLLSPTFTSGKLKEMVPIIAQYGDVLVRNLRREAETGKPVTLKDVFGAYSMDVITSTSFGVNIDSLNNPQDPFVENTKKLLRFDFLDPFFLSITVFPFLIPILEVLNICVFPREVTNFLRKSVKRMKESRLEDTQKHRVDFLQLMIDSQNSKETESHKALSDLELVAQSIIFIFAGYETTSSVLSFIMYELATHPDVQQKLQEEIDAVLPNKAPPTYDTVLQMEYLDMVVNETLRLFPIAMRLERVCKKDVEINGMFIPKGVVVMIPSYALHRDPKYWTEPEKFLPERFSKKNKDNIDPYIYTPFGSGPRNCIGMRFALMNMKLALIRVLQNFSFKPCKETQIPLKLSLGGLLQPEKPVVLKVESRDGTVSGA

[4] = target: T2, CYP3A4; test: Inhibition of CYP3A4 in human liver microsomes assessed as enzyme-mediated metabolite formation at 0.3 uM using testosterone as substrate incubated for 5 mins followed by NADPH addition measured after 30 mins by LC-MS/MS analysis relative to control; set-up: scale not given: the % may be the effect or the level left; settings: probe testosterone, read-out: Activity
[5] = target: T3, Cytochrome P450 3A4 (Homo sapiens, UniProt P08684); test: Inhibition of CYP3A4 in human liver microsomes using testosterone as substrate preincubated for 20 mins followed by substrate addition measured after 30 mins in presence of NADPH by LC-MS/MS analysis
T3 sequence (P08684 whole entry): as above

[6] = target: T4, CYP2B6 (Homo sapiens, UniProt P20813); test: Inhibition of CYP2B6 in human liver microsomes assessed as enzyme-mediated metabolite formation at 3 uM using bupropion as substrate preincubated for 20 mins followed by substrate addition measured after 30 mins in presence of NADPH by LC-MS/MS analysis relative to control; set-up: scale not given: the % may be the effect or the level left; settings: probe bupropion, read-out: Activity
T4 sequence (P20813 whole entry): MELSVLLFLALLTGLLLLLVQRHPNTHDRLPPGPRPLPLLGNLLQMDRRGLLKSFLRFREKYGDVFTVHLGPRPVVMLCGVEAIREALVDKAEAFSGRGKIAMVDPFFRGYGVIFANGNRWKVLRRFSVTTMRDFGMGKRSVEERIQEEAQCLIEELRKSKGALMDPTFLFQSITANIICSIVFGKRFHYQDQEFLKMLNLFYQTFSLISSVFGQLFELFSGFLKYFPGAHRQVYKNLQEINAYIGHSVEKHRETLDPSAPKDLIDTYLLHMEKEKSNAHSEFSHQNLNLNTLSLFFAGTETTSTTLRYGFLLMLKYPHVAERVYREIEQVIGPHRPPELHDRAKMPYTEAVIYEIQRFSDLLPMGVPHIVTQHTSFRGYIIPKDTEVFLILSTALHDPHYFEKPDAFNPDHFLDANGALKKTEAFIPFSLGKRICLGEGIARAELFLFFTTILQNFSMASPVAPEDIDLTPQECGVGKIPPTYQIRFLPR

[7] = target: CYP2C19 (Homo sapiens, UniProt P33261); test: Inhibition of CYP2C19 in human liver microsomes assessed as enzyme-mediated metabolite formation at 30 uM using (S)-mephenytoin as substrate preincubated for 20 mins followed by substrate addition measured after 30 mins in presence of NADPH by LC-MS/MS analysis relative to control; set-up: scale not given: the % may be the effect or the level left; settings: probe (S)-mephenytoin, read-out: Activity
CYP2C19, sequence (P33261 whole entry): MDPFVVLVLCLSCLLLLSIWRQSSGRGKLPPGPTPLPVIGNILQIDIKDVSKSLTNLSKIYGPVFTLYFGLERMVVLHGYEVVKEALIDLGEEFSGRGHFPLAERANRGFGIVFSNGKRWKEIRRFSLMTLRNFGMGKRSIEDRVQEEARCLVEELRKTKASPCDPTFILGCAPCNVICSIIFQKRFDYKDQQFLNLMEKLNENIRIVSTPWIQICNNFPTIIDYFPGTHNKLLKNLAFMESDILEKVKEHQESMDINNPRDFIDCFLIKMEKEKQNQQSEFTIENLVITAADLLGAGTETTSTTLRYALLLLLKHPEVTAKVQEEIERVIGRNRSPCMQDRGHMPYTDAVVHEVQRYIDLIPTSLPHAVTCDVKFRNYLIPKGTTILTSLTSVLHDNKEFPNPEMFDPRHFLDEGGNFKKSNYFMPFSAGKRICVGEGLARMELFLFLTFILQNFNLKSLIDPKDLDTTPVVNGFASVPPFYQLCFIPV

[8] = target: T4, CYP2B6; test: Inhibition of CYP2B6 in human liver microsomes assessed as enzyme-mediated metabolite formation at 1 uM using bupropion as substrate preincubated for 20 mins followed by substrate addition measured after 30 mins in presence of NADPH by LC-MS/MS analysis relative to control; set-up: scale not given: the % may be the effect or the level left; settings: probe bupropion, read-out: Activity
[9] = target: T3, Cytochrome P450 3A4; test: Inhibition of CYP3A4 in human liver microsomes assessed as enzyme-mediated metabolite formation using testosterone as substrate incubated for 5 mins followed by NADPH addition measured after 30 mins by LC-MS/MS analysis
[10] = target: CYP2C9 (Homo sapiens, UniProt P11712); test: Inhibition of CYP2C9 in human liver microsomes assessed as enzyme-mediated metabolite formation at 3 uM using diclofenac as substrate preincubated for 20 mins followed by substrate addition measured after 30 mins in presence of NADPH by LC-MS/MS analysis relative to control; set-up: scale not given: the % may be the effect or the level left; settings: probe diclofenac, read-out: Activity
CYP2C9, sequence (P11712 whole entry): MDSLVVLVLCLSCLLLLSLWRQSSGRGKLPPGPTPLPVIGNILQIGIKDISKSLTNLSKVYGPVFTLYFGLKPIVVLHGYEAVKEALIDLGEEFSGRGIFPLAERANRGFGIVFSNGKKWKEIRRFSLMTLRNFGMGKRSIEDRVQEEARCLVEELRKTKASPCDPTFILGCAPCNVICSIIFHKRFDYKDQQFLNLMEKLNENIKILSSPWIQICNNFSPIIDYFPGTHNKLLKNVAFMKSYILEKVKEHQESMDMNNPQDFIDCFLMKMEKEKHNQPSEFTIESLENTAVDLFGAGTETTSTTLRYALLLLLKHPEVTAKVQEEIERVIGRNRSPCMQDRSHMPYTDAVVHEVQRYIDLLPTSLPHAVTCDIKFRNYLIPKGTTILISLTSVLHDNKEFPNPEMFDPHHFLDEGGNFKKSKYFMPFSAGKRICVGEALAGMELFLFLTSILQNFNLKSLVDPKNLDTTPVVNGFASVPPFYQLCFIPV

activity at 0.5 h, 0.1 µM [1]: 103%
activity at 0.5 h, 30 µM [2]: 80.1%
activity at 0.5 h, 0.1 µM [3]: 96.3%
activity at 0.5 h, 0.3 µM [4]: 75.2%
IC50 [5]: > 30 µM
activity at 0.5 h, 3 µM [6]: 77.3%
activity at 0.5 h, 30 µM [7]: 36.8%
activity at 0.5 h, 1 µM [8]: 79%
IC50 [9]: 30 µM
activity at 0.5 h, 3 µM [10]: 78.8%
SMILES: CCCCCCCC(=O)CCc1ccc(O)c(OC)c1
